In brackets after ≈: the same amount, converted by molar mass. Where a SMILES comes first, the peptide text is derived from it. [ ]: non-standard residue; d: D form. dPhe(4-NO2) = N[C@H](Cc1ccc([N+](=O)[O-])cc1)C(=O)O; dPhe(3,4,5-F3) = N[C@H](Cc1cc(F)c(F)c(F)c1)C(=O)O; dTrp(1-Me) = Cn1cc(C[C@@H](N)C(=O)O)c2ccccc21; dPhe(2-Me) = Cc1ccccc1C[C@@H](N)C(=O)O; dPhe(4-F) = N[C@H](Cc1ccc(F)cc1)C(=O)O
How the values were obtained:
human MOR = target: T1, human MOR (Homo sapiens, UniProt P35372); assay: biochemical; type: binding; conditions: [3H]DAMGO, human MOR; ± S.E.M., three independent experiments; read-out: MOR Ki
T1 construct: expressed in transfected cells

hKOR [1] = target: T2, hKOR (Homo sapiens, UniProt P41145); assay: Competition binding, [3H]U69,593, hKOR-CHO membranes; conditions: for Ki: [3H]U69,593, human KOR, ± S.E.M., three independent experiments, read-out: KOR Ki
C57BL/6J mice = assay: 55 °C warm-water tail-withdrawal assay, antinociception; type: in vivo, mouse
Procedure: For intracerebroventricular administration, peptides were dissolved in DMSO at a concentration of 20 mM (100 nmol/5 µL), then diluted to test doses in a final vehicle solution of 50%DMSO/50% saline (0.9%). For all other testing (for oral administration), peptides were made fresh each day for testing in a final vehicle solution of 10% DMSO/10% Solutol/80% saline (0.9%).
Intracerebroventricular injections were made directly into the lateral ventricle according to the modified steps detailed previously. The volume of all i.c.v. injections was 5 μL, using a 10 μL Hamilton microliter syringe. The mouse was lightly anesthetized with isoflurane, an incision was made in the scalp, and the injection was made 2 mm lateral and 2 mm caudal to bregma at a depth of 3 mm.
The dose response of analogs 3, 6, 9 and 14 were also assessed following administration of one of up to four additional oral (p.o.) doses (1–30 mg/kg).

hKOR [2] = target: T2, hKOR; assay: KOR cAMP assay using GloSensor-22F, agonist mode (KOR-CHO-GLO cells); type: cell-based; conditions: read-out: KOR Efficacy (%)
[3] = Kinetic aqueous solubility; type: physicochemical; conditions: 1% DMSO, pH 7.4
Description: Table A1 Stability of [D-Trp]- and [D-Phe^4]CJ-15,208 and selected analogs in human (HLMs) and mouse liver microsomes (MLMs)^1. and kinetic aqueous solubility. | column: Solubility ^2 / (µM)

[4] = Metabolic stability in human liver microsomes; type: in vitro ADME; conditions: 1 mg protein/mL; for half-life at 1 µM / microsomal CLint at 1 µM: human liver microsomes
Procedure: (§1) Evaluation of the metabolic stability of the macrocyclic tetrapeptides by human and mouse liver microsomes was performed by Curia Global (Buffalo, NY, USA). […]

hKOR [5] = target: T2, hKOR; assay: KOR cAMP assay using GloSensor-22F, antagonist mode (vs 10 nM U50,488); type: cell-based
Description: A piggy-Bac (PB) transposon/transposase system was utilized to allow for the stable integration of the GloSensor-22F cAMP sensor (Promega, Madison, WI, USA) gene into genomic TTAA sites in Chinese hamster ovary cells already stably expressing the hKOR. The pFastBac hyperPB plasmid vector, which codes for the piggy-Bac transposon/transposase system, was utilized and was a kind gift from Dr. John Lueck. The multicistronic expression cassette developed for our experiments consisted of a CMV promoter driving constitutive expression of GloSensor-22F cAMP sensor, followed by an internal ribosome entry site (IRES) to drive the expression of codon-optimized HygR-P2A-mScarlet (hygromycin resistance gene and mScarlet separated by a 2A self-cleaving peptide element). To clone the expression cassette onto the pFastBac vector, the CMV promoter and GloSensor-22F were PCR amplified from pGloSensor-22F cAMP Plasmid (Promega), the IRES sequence was PCR amplified from pLVX-CMV-Galpha-oA ONE-GO (a gift from Dr. Mikel Garcia-Marcos, Addgene plasmid #189732), the HygR-P2A-mScarlet sequence was a kind gift from Dr. Lueck, and a bGH-poly(A) termination sequence was PCR amplified from pcDNA3.1(+). The pFastBac vector was linearized via overnight digestion with CspCI at 37 °C, which cuts between two inverted terminal repeat (ITR) sequences, and the corresponding backbone and all PCR fragments were gel purified and assembled via Gibson assembly using the Gibson Assembly MasterMix (New England Biolabs, Ipswich, MA, USA). The resulting pFastBac CMV GloSensor-22F IRES HygR-P2A-mScarlet bGH plasmid was transformed into NEB Stable Competent E. coli (New England Biolabs), miniprepped using the E.Z.N.A. Plasmid DNA Mini Kit (Omega Bio-Tek, Norcross, GA, USA), and sequence verified by nanopore whole-plasmid sequencing (Eurofins Genomics, Louisville, KY, USA).
3.0 × 10^6 hKOR-CHO cells were plated on a 6 cm dish and incubated for four h at 37 °C and 5% CO2 in DMEM (Corning Mediatech, Manassas, VA, USA) supplemented with 5% FBS (Corning Mediatech), 1% Penicillin/Streptomycin (Gibco, Waltham, MA, USA). The cells were then transfected with 2.0 μg pFastBac CMV GloSensor-22F IRES HygR-P2A-mScarlet bGH using PEI as a transfection reagent. The following day, transfected cells were reseeded onto a 10 cm dish at a density of 5.0 × 10^5 cells and 600 μg/mL hygromycin B (Gold Bio, St. Louis, MO, USA) was added to the culture media. Cells were cultured under selection antibiotics for seven days, and the selection process was monitored by the increase in abundance of mScarlet positive cells via epifluorescence microscopy.
Following the selection period, KOR-CHO-GLO cells were maintained at 37 °C and 5% CO2 in DMEM supplemented with 5% FBS, 1% Penicillin/Streptomycin and 300 μg/mL hygromycin B to reduce the likelihood of CMV promoter silencing. On the day of the assay, cells were detached with 0.05% trypsin (Gibco) and counted, then centrifuged (1000× g, 5 min) and resuspended in assay buffer (1xPBS, 0.1% glucose, 0.5 mM MgCl2) containing 4 mM D-luciferin substrate (Gold Bio) at approximately 2 million cells/mL. 25 μL of cells (~50,000/well) were seeded onto poly L-lysine-coated white 96-well flat bottom plates (Greiner Bio-One, Kremsmünster, Austria)) and returned to the incubator for 60 min. Following incubation, cells were allowed to equilibrate to room temperature protected from light (10–15 min). Initial luminescence readings (at least 10 cycles) were collected for each well using a FLUOstar Omega v.6.2 plate reader (BMG Labtech, Ortenberg, Germany), after which the plate was removed. Prepared 4x treatments of drug (25 μL) were added to appropriate wells followed by 50 μL of 20 μM forskolin (AmBeed, Buffalo Grove, IL, USA) before the plate was returned to the reader and luminescence measured until final plateau levels were achieved (20–30 min). Assays were performed in duplicate and repeated at least three times.

[6] = Metabolic stability in mouse liver microsomes; type: in vitro ADME; conditions: 1 mg protein/mL; for half-life at 1 µM / microsomal CLint at 1 µM: mouse liver microsomes
Procedure: as §1

[7] = 30 mg/kg, p.o., 30 min after administration
[8] = 1 µM compound, 37 °C, read-out: HLM t1/2
[9] = 1 µM compound, 37 °C, read-out: MLM t1/2

Row | Structure (SMILES) | Ki (human MOR) | Selectivity (MOR Ki/KOR Ki) (hKOR [1]) | Ki (hKOR [1]) | antinociception vs vehicle (C57BL/6J mice; [7]) | Emax at 10 µM (hKOR [2]) | solubility kinetic [3] | half-life at 1 µM [4, 8] | microsomal CLint at 1 µM ([4]; read-out: HLM CLint) | IC50 (hKOR [5]) | half-life at 1 µM [6, 9] | microsomal CLint at 1 µM ([6]; read-out: MLM CLint) | half-life ([4]; microsomes, 1 µM compound, 37 °C, read-out: HLM t1/2) | microsomal CLint ([4]; microsomes, read-out: HLM CLint) | half-life ([6]; microsomes, 1 µM compound, 37 °C, read-out: MLM t1/2) | microsomal CLint ([6]; microsomes, read-out: MLM CLint) | antinociception vs vehicle (C57BL/6J mice; 30 nmol, i.c.v., positive control)
1 | Cc1ccccc1C[C@H]1NC(=O)[C@H](Cc2ccccc2)NC(=O)[C@H]2CCCN2C(=O)[C@H](Cc2ccccc2)NC1=O [Analog 13] (cyclo(F[dP]F[dPhe(2-Me)])) | 280 ± 8 nM | 2.5 | 110 ± 13 nM |  |  |  |  |  |  |  |  |  |  |  |  | 
2 | COc1ccc(C[C@H]2NC(=O)[C@H](Cc3ccccc3)NC(=O)[C@H]3CCCN3C(=O)[C@H](Cc3ccccc3)NC2=O)cc1 [Analog 18, [D-Tyr(Me)^4]CJ-15,208] (cyclo(F[dP]F[dY](Me))) |  |  | 150 ± 16 nM | significant antinociception |  |  |  |  |  |  |  |  |  |  |  | 
3 | O=C1N[C@H](Cc2ccc([N+](=O)[O-])cc2)C(=O)N[C@@H](Cc2ccccc2)C(=O)N2CCC[C@@H]2C(=O)N[C@H]1Cc1ccccc1 [Analog 16] (cyclo(F[dP]F[dPhe(4-NO2)])) | 61 ± 2.7 nM | 9 | 7 ± 0.99 nM |  | 7.3 ± 7.3% | 6.7 µM (≈ 3.91 µg/mL) | 6.7 min | 103 µL/min/mg | 210 ± 13 nM | 4.4 min | 159 µL/min/mg |  |  |  |  | 
4 | O=C1N[C@H](Cc2ccc(F)cc2)C(=O)N[C@@H](Cc2ccccc2)C(=O)N2CCC[C@@H]2C(=O)N[C@H]1Cc1ccccc1 [Analog 7] (cyclo(F[dP]F[dPhe(4-F)])) |  |  |  |  | 5.5 ± 7.9% | 25 µM (≈ 13.9 µg/mL) |  |  |  |  |  | 2.3 min | 296 µL/min/mg | 3.4 min | 202 µL/min/mg | 
5 | Cn1cc(C[C@H]2NC(=O)[C@H](Cc3ccccc3)NC(=O)[C@H]3CCCN3C(=O)[C@H](Cc3ccccc3)NC2=O)c2ccccc21 [Analog 2, [D-Trp(Me)]CJ-15,208] (cyclo(F[dP]F[dTrp(1-Me)])) | 36 ± 2.6 nM | 2 | 16 ± 0.8 nM |  | 14 ± 7.1% | 12 µM (≈ 7.1 µg/mL) | 2.4 min | 286 µL/min/mg | 220 ± 32 nM | 3.3 min | 211 µL/min/mg |  |  |  |  | 
6 | CN1CC[C@]23c4c5ccc(O)c4O[C@H]2[C@@H](O)C=C[C@H]3[C@H]1C5 [morphine, reference compound] |  |  |  | significant antinociception |  |  |  |  |  |  |  |  |  |  |  | significant antinociception
7 | O=C1N[C@H](Cc2cc(F)c(F)c(F)c2)C(=O)N[C@@H](Cc2ccccc2)C(=O)N2CCC[C@@H]2C(=O)N[C@H]1Cc1ccccc1 [Analog 11] (cyclo(F[dP]F[dPhe(3,4,5-F3)])) | 46 ± 5.4 nM | 4 | 12 ± 0.44 nM |  | 2.2 ± 6.2% | 4.8 µM (≈ 2.84 µg/mL) | 1.6 min | 447 µL/min/mg | 160 ± 19 nM | 2.9 min | 238 µL/min/mg |  |  |  |  | 

Reference: PMC12526156, “Optimization of the Macrocyclic Tetrapeptide [D-Trp]CJ-15,208 to Prevent Stress-Induced Relapse of Cocaine-Seeking Behavior” (Molecules, 2025)
